According to patent US11311522B1 (Cavion, Inc., priority 2018, dated 2022):

Experiment: PN001/Part I: safety and tolerability
Assay type: in vivo, human
Excerpt: Safety was monitored throughout by adverse events, vital signs, and repeated clinical and laboratory evaluations. […] All adverse events were mild or moderate and severity and transient.

CC(C)c1ccc(CC(=O)N[C@H](C)c2ccc(OCC(F)(F)F)cn2)cc1 [CX-8998]
5 (83.3) n (%): At least 1 adverse event (8 mg evening)
2 (33.3) n (%): At least 1 adverse event (1 mg) | Headache (1 mg) | Nervous System Disorders (1 mg)
0 n (%): Abnormal physical sensation (1 mg) | Dizziness (1 mg) | Drowsiness (1 mg) | Elevated mood (1 mg) | Euphoric mood (1 mg) | Eye Disorders (1 mg) | Fatigue (1 mg) | Feeling abnormal (1 mg) | Floating feeling (1 mg) | Gastro-intestinal Disorders (1 mg) | Hangover effect (1 mg) | Indifference (1 mg) | Injury, Poisoning and Procedural Complications (1 mg) | Insomnia (1 mg) | Intoxication (1 mg) | Irritability (1 mg) | Lethargy (1 mg) | Paraesthesia (1 mg) | Paraesthesia oral (1 mg) | Paraesthesia tongue (1 mg) | Psychiatric Disorders (1 mg) | Racing thoughts (1 mg) | Relaxed (1 mg) | Sensory disturbance (1 mg) | Vision blurred (1 mg) | Visual disturbance (1 mg) | Vivid dreams (1 mg) | Abnormal physical sensation (1 mg fed) | At least 1 adverse event (1 mg fed) | Dizziness (1 mg fed) | Drowsiness (1 mg fed) | Elevated mood (1 mg fed) | Euphoric mood (1 mg fed) | Eye Disorders (1 mg fed) | Fatigue (1 mg fed) | Feeling abnormal (1 mg fed) | Floating feeling (1 mg fed) | Gastro-intestinal Disorders (1 mg fed) | Hangover effect (1 mg fed) | Headache (1 mg fed) | Indifference (1 mg fed) | Injury, Poisoning and Procedural Complications (1 mg fed) | Insomnia (1 mg fed) | Intoxication (1 mg fed) | Irritability (1 mg fed) | Lethargy (1 mg fed) | Nervous System Disorders (1 mg fed) | Paraesthesia (1 mg fed) | Paraesthesia oral (1 mg fed) | Paraesthesia tongue (1 mg fed) | Psychiatric Disorders (1 mg fed) | Racing thoughts (1 mg fed) | Relaxed (1 mg fed) | Sensory disturbance (1 mg fed) | Vision blurred (1 mg fed) | Visual disturbance (1 mg fed) | Vivid dreams (1 mg fed) | Abnormal physical sensation (3 mg) | Dizziness (3 mg) | Drowsiness (3 mg) | Elevated mood (3 mg) | Eye Disorders (3 mg) | Fatigue (3 mg) | Feeling abnormal (3 mg) | Floating feeling (3 mg) | Gastro-intestinal Disorders (3 mg) | Hangover effect (3 mg) | Headache (3 mg) | Indifference (3 mg) | Injury, Poisoning and Procedural Complications (3 mg) | Insomnia (3 mg) | Intoxication (3 mg) | Irritability (3 mg) | Lethargy (3 mg) | Nervous System Disorders (3 mg) | Paraesthesia (3 mg) | Paraesthesia oral (3 mg) | Paraesthesia tongue (3 mg) | Racing thoughts (3 mg) | Relaxed (3 mg) | Sensory disturbance (3 mg) | Vision blurred (3 mg) | Visual disturbance (3 mg) | Vivid dreams (3 mg) | Abnormal physical sensation (4 mg) | Dizziness (4 mg) | Drowsiness (4 mg) | Elevated mood (4 mg) | Euphoric mood (4 mg) | Fatigue (4 mg) | Floating feeling (4 mg) | Gastro-intestinal Disorders (4 mg) | Hangover effect (4 mg) | Headache (4 mg) | Indifference (4 mg) | Injury, Poisoning and Procedural Complications (4 mg) | Insomnia (4 mg) | Intoxication (4 mg) | Irritability (4 mg) | Lethargy (4 mg) | Nervous System Disorders (4 mg) | Paraesthesia (4 mg) | Paraesthesia oral (4 mg) | Paraesthesia tongue (4 mg) | Psychiatric Disorders (4 mg) | Racing thoughts (4 mg) | Relaxed (4 mg) | Sensory disturbance (4 mg) | Vision blurred (4 mg) | Vivid dreams (4 mg) | Abnormal physical sensation (8 mg) | Dizziness (8 mg) | Drowsiness (8 mg) | Elevated mood (8 mg) | Euphoric mood (8 mg) | Fatigue (8 mg) | Feeling abnormal (8 mg) | Floating feeling (8 mg) | Hangover effect (8 mg) | Headache (8 mg) | Indifference (8 mg) | Injury, Poisoning and Procedural Complications (8 mg) | Insomnia (8 mg) | Intoxication (8 mg) | Irritability (8 mg) | Lethargy (8 mg) | Paraesthesia (8 mg) | Paraesthesia tongue (8 mg) | Psychiatric Disorders (8 mg) | Racing thoughts (8 mg) | Relaxed (8 mg) | Sensory disturbance (8 mg) | Vision blurred (8 mg) | Vivid dreams (8 mg) | Dizziness (8 mg evening) | Fatigue (8 mg evening) | Floating feeling (8 mg evening) | Gastro-intestinal Disorders (8 mg evening) | Hangover effect (8 mg evening) | Indifference (8 mg evening) | Injury, Poisoning and Procedural Complications (8 mg evening) | Insomnia (8 mg evening) | Intoxication (8 mg evening) | Irritability (8 mg evening) | Lethargy (8 mg evening) | Paraesthesia oral (8 mg evening) | Paraesthesia tongue (8 mg evening) | Relaxed (8 mg evening) | Sensory disturbance (8 mg evening) | Visual disturbance (8 mg evening)
1 (16.7) n (%): Euphoric mood (3 mg) | Psychiatric Disorders (3 mg) | At least 1 adverse event (4 mg) | Eye Disorders (4 mg) | Feeling abnormal (4 mg) | Visual disturbance (4 mg) | At least 1 adverse event (8 mg) | Eye Disorders (8 mg) | Gastro-intestinal Disorders (8 mg) | Nervous System Disorders (8 mg) | Paraesthesia oral (8 mg) | Visual disturbance (8 mg) | Abnormal physical sensation (8 mg evening) | Drowsiness (8 mg evening) | Eye Disorders (8 mg evening) | Feeling abnormal (8 mg evening) | Headache (8 mg evening) | Paraesthesia (8 mg evening) | Racing thoughts (8 mg evening) | Vision blurred (8 mg evening) | Vivid dreams (8 mg evening)
4 n (%): Psychiatric Disorders (8 mg evening)
3 (50.0) n (%): At least 1 adverse event (3 mg) | Nervous System Disorders (8 mg evening)
2 n (%): Elevated mood (8 mg evening) | Euphoric mood (8 mg evening)
